Like-named read-outs stand apart in the source and are kept apart here. Positions of bridges follow the written chain, without caps; N, C: chain ends. No end group written: not given here.
Assays:
[1] = system: epidermal growth factor receptor (EGFR); conditions: ref Moody et al., 2012, cited from earlier work; for effect on PACAP-induced EGFR tyrosine phosphorylation: NCI-H838
[2] = system: PYK-2; conditions: NCI-H69, ref Roelle et al., 2008, cited from earlier work; for PYK-2 tyrosine phosphorylation: 10 μM
[3] = system: cytosolic Ca^2+ (NCI-H838 cells); test: Cytosolic Ca^2+ in Fura-2 AM loaded NCI-H838 cells; assay type: cell-based; conditions: for effect on PACAP-induced increase in cytosolic Ca^2+ (discussion): NCI-H838 cells; for effect on PACAP-27-stimulated fluorescence intensity / effect on basal fluorescence intensity: 50 μM inhibitor; for effect on PACAP-27-stimulated fluorescence intensity: 100 nM PACAP-27, Fig. 1; for effect on basal fluorescence intensity: Fig. 1
[4] = system: FAK; conditions: pancreatic acini, cited from earlier work
[5] = system: ERK; conditions: NCI-H838; ref Moody et al., 2002; cited from earlier work
[6] = system: prostate, breast, pancreatic and colon tumors; conditions: nude mice; ref Roberts et al., 2008; cited from earlier work
[7] = system: PYK-2; conditions: read-out: PYK-2 IC50, cited from earlier work
[8] = system: FAK; conditions: read-out: FAK IC50, cited from earlier work
[9] = system: ERK; conditions: NCI-H69; ref Roelle et al., 2008; cited from earlier work
[10] = system: ovarian tumor; conditions: animal models; ref Halder et al., 2007; cited from earlier work
[11] = system: glioma tumor; conditions: animal models; ref Halder et al., 2007; cited from earlier work
[12] = system: cytosolic Ca^2+ (pancreatic acini); conditions: ref Pace et al., 2003; cited from earlier work
[13] = system: NCI-H838 cells; conditions: ref Moody et al., cited from earlier work; for growth of NCI-H838 cells: 2003b
[14] = system: cytosolic Ca^2+ (NCI-H69 cells); conditions: 10 μM, ref Roelle et al., 2008; cited from earlier work
[15] = system: cytosolic Ca^2+ (NCI-H510 cells); conditions: 10 μM, ref Roelle et al., 2008; cited from earlier work
[16] = system: PYK-2; conditions: 10 μM, NCI-H510; ref Roelle et al., 2008; cited from earlier work
[17] = system: phosphatidylinositol turnover; conditions: lung cancer cells, cited from earlier work
[18] = system: PYK-2; test: Total PYK-2 Western blot, NCI-H838 cells; assay type: cell-based; conditions: 100 nM, 2 min, Fig. 3A
[19] = system: PAC1; conditions: cited from earlier work
[20] = system: cAMP; conditions: lung cancer cells, cited from earlier work
[21] = system: PYK-2; conditions: by an increase in cytoplasmic Ca^2+; ref Lev et al., 1995; cited from earlier work
[22] = system: VPAC2; conditions: ref Ishihara et al., 1992; Lutz et al., 1993; cited from earlier work
[23] = system: VPAC1; conditions: ref Ishihara et al., 1992; Lutz et al., 1993; cited from earlier work
[24] = ATP binding, ref Roberts et al., 2008
[25] = ATP binding site, ref Liu et al., 2007

In the case of `O=C(O)CN(CC(=O)O)c1ccccc1OCCOc1ccccc1N(CC(=O)O)CC(=O)O` [BAPTA], the “effect on PACAP-induced EGFR tyrosine phosphorylation” value [1] is given as “not BAPTA inhibited”, the “effect on GAL- or BK-induced PYK-2 phosphorylation” value [2] is given as “blocked” and the “effect on PACAP-induced increase in cytosolic Ca^2+ (discussion)” value [3] is given as “inhibited”.

In the case of `CN(C)CCCn1cc(C2=C(c3c[nH]c4ccccc34)C(=O)NC2=O)c2ccccc21` [GF109203X], the “effect on CCK-induced FAK tyrosine phosphorylation” value ([4]; ref Tapia et al., 1999) is given as “unaffected”.

For `O=S(=O)(NCCNC/C=C/c1ccc(Br)cc1)c1cccc2cnccc12` [H89], the “effect on PACAP-27-stimulated fluorescence intensity” value [3] was “no effect” and the “effect on basal fluorescence intensity” value [3] was “no effect”.

In the case of `COc1cccc(-c2cc(=O)c3ccccc3o2)c1N` [PD98059], the “effect on PACAP-induced ERK tyrosine phosphorylation” value [5] is listed as “inhibited”.

For `CN(c1ncccc1CNc1nc(Nc2ccc3c(c2)CC(=O)N3)ncc1C(F)(F)F)S(C)(=O)=O` [PF-562,271], the “growth of prostate, breast, pancreatic and colon tumors” value [6] is given as “inhibited”, the IC50 [7, 24] is given as 13 nM and the IC50 [8, 24] is given as 2 nM.

For `CC(C)(C)n1nc(-c2ccc(Cl)cc2)c2c(N)ncnc21` [PP2], the “effect on PACAP-induced EGFR tyrosine phosphorylation” value [1] is listed as “inhibited”, the “effect on GAL- or BK-induced PYK-2 phosphorylation” value [2] is listed as “blocked” and the “effect on GAL- or BK-induced ERK tyrosine phosphorylation” value [9] is listed as “blocked”.

For `CNC(=O)c1ccccc1Nc1nc(Nc2ccc(N3CCOCC3)cc2OC)ncc1Cl` [TAE226], the ovarian tumor growth [10] is given as “inhibited”, the IC50 [7, 25] is given as 5 nM and the glioma tumor growth [11] is given as “inhibited”. The IC50 [8, 25] was 5 nM.

In the case of `COc1ccc2c(c1)CC[C@@H]1[C@@H]2CC[C@]2(C)[C@@H](NCCCCCCN3C(=O)C=CC3=O)CC[C@@H]12` [U73122], the “effect on ionomycin-induced increase in cytosolic Ca^2+” value ([3]; 5 μM ionomycin, data not shown) is reported as “little effect”, the “effect on PACAP-27-stimulated fluorescence intensity” value [3] is reported as “abolished” and the “effect on basal fluorescence intensity” value [3] is reported as “little effect”.

For `C/C=C(/C)C(=O)O[C@H]1C(C)=C2[C@H]([C@@H]1OC(=O)CCCCCCC)[C@@](C)(OC(C)=O)C[C@H](OC(=O)CCC)[C@@]1(O)[C@H]2OC(=O)[C@@]1(C)O` [thapsigargin], the “effect on CCK-induced increase in cytosolic Ca^2+” value [12] is listed as “inhibits”.

In the case of “PACAP(6–38): PAC1 antagonist (FTDSYSRYRKQMAVKKYLAAVLGKRYKQRVKNK; ends and bridges not checked; UniProt P18509 137-169, looked up, fragment)”, the “effect on PACAP-induced EGFR tyrosine phosphorylation” value [1] is listed as “inhibited”, the “effect on PACAP-induced increase in cytosolic Ca^2+ (discussion)” value [3] is listed as “blocked” and the “growth of NCI-H838 cells” value [13] is listed as “inhibited”. The “inhibition of proliferation of NCI-H838 cells” value [13]; 2012 was “inhibited”.

For “bradykinin (RPPGFSPFR; Bradykinin; UniProt P01042 381-389, looked up)”, the PYK-2 tyrosine phosphorylation [2] is listed as “increased”, the “cytosolic Ca^2+” value [14] is listed as “increased” and the “cytosolic Ca^2+” value [15] is listed as “increased”. For the same molecule, the PYK-2 tyrosine phosphorylation [16] was “increased”.

For “galanin (GWTLNSAGYLLGPHAVGNHRSFSDKNGLTS; Galanin; UniProt P22466 33-62, looked up)”, the PYK-2 tyrosine phosphorylation [2] is listed as “increased”, the “cytosolic Ca^2+” value [14] is listed as “increased” and the “cytosolic Ca^2+” value [15] is listed as “increased”. The PYK-2 tyrosine phosphorylation [16] was “increased”.

For “pituitary adenylate cyclase activating polypeptide [PACAP]”, the “Y^1068-EGFR phosphorylation” value ([1]; NCI-H838, after 1 min) is listed as “increased”, the PI metabolites ([17]; ref not given) is listed as “increases” and the ERK tyrosine phosphorylation [5] is listed as “caused ERK tyrosine phosphorylation”. For the same molecule, the “total PYK-2” value [18] was “did not change”, the “binding affinity to PAC1” value ([19]; ref not given for PACAP) was “high affinity” and the cAMP ([20]; ref not given) was “increases”. The “growth of NCI-H838 cells” value [13] was “stimulated”.

For platelet-derived growth factor, the PYK-2 activation [21] is listed as “activated”.

In the case of vasoactive intestinal peptide [VIP], the PI turnover ([17]; ref Lee et al., 1990) is given as “does not cause PI turnover”, the “binding affinity to PAC1” value ([19]; ref Ishihara et al., 1992, Lutz et al., 1993) is given as “low affinity” and the “binding affinity to VPAC2” value [22] is given as “high affinity”. The “binding affinity to VPAC1” value [23] was “high affinity”, the cAMP ([20]; ref Lee et al., 1990) was “increases” and the “growth of NCI-H838 cells” value [13] was “stimulated”.

For “vasopressin (CYFQNCPRG-NH2; disulfide 1-6; ends not checked; UniProt P01185 20-28, looked up)”, the PYK-2 activation [21] is given as “activated”.

B1: Cholecystokinin (peptide, UniProt P06307 21-115, looked up)
Cholecystokinin: QPVPPADPAGSGLQRAEEAPRRQLRVSQRTDGESRAHLGALLARYIQQARKAPSGRMSIVKNLQNLDPSHRISDRDYMGWMDFGRRSAEEYEYPS
modifications: Cholecystokinin
For B1, the “tyrosine phosphorylation of FAK” value ([4]; ref Pace et al., 2003) is listed as “causes tyrosine phosphorylation” and the “cytosolic Ca^2+” value [12] is listed as “elevates”.
